{"source": "patent US11771694B2", "about": "“Arylamide compounds for treatment and prevention of viral infections” (priority 2020, dated 2023)", "key": {"SARS-CoV-2 [1]": {"test_system": "SARS-CoV-2", "test": "microbe, parasite or virus in culture", "format": "cell-based"}, "[2]": {"test_system": "human liver cell line (HepG2)"}, "[3]": {"test_system": "SARS-CoV-2 (Washington strain 2019-nCoV/USA-WA1/2020)", "conditions": "Vero; direct assay; 10 μM; 24 hpi"}, "human PDE3A": {"biological_target": "human PDE3A (Homo sapiens, UniProt Q14432)", "sequence (Q14432 whole entry)": "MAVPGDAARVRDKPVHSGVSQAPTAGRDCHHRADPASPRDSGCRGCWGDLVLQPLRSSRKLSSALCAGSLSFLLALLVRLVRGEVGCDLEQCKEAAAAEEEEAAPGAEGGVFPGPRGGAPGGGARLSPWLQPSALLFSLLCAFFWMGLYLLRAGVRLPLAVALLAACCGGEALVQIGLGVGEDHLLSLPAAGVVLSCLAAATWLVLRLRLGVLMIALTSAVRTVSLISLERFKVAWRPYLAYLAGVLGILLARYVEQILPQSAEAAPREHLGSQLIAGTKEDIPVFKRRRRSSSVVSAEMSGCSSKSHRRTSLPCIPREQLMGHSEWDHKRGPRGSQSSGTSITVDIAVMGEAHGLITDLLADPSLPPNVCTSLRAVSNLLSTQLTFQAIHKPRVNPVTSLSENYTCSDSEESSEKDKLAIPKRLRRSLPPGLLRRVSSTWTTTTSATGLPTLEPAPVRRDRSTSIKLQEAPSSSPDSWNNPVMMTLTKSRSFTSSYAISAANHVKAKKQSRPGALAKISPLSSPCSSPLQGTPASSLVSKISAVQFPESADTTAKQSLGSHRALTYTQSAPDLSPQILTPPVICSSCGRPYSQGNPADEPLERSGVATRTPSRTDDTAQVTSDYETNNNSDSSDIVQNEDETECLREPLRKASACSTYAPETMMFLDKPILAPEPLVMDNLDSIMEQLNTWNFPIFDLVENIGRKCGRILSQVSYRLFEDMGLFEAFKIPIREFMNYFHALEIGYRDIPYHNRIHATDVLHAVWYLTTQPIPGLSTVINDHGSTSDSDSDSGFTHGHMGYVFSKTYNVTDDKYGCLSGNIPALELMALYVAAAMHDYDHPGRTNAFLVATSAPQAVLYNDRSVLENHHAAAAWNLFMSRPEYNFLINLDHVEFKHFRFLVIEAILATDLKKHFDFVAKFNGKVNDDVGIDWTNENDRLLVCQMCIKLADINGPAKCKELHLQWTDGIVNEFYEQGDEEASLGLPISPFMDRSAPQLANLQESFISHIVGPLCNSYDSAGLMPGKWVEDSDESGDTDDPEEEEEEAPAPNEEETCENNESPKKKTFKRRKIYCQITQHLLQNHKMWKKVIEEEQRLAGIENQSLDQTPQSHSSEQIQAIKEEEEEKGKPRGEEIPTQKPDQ", "test": "PDE-Glo phosphodiesterase assay, PDE3A", "format": "biochemical", "conditions": "1 μM cAMP substrate; read-out: IC50, inhibition of human PDE3A"}, "[4]": {"test_system": "Ulcerative Proctosigmoiditis/Ulcerative Proctitis (UP/UPS)", "test": "Phase 2 study CTIX-BRI-206 in Ulcerative Proctosigmoiditis/Ulcerative Proctitis", "format": "in vivo, human", "source_text": "Inflammatory biomarkers IL-1β and IL-6 were reduced in colonic tissue biopsies collected at Week 6 (Day 42) compared to those biopsies collected at baseline (FIG. 20, Panel B)."}, "S. aureus": {"test_system": "S. aureus", "test": "microbe, parasite or virus in culture", "format": "cell-based", "conditions": "Staphylococcus aureus; value marked * = MIC90"}, "human PDE4B2": {"biological_target": "human PDE4B2 (Homo sapiens, UniProt Q07343)", "sequence (Q07343 1-564 isoform Q07343-2)": "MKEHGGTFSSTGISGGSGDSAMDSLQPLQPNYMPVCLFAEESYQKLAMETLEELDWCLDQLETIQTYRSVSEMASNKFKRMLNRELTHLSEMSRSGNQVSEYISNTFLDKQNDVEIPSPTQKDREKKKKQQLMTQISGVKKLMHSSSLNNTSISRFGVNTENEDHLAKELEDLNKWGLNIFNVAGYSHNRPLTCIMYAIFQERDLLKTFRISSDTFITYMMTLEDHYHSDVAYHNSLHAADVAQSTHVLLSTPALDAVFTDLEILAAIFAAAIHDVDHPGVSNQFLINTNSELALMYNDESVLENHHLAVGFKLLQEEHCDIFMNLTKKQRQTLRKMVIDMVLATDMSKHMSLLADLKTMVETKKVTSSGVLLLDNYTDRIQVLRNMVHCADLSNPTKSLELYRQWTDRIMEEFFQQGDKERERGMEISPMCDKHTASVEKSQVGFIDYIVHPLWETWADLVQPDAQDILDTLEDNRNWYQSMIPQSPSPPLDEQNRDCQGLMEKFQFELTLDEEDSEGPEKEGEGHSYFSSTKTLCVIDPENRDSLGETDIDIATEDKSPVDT", "test": "PDE-Glo phosphodiesterase assay, PDE4B2", "conditions": "IC50, inhibition of human PDE4B2, 1 μM cAMP substrate"}, "[5]": {"test_system": "luciferase-expressing pseudotyped virus (rVSV) containing the SARS-CoV-2 spike protein", "format": "cell-based"}, "LPS-induced IL-8 release": {"test_system": "LPS-induced IL-8 release", "test": "LPS-induced IL-8 release, THP-1 cells, ELISA", "format": "cell-based", "conditions": "Homo sapiens, 8-hour exposure, read-out: IC50, inhibition of LPS-induced IL-8 release"}, "SARS-CoV-2 [6]": {"test_system": "SARS-CoV-2", "test": "SARS-CoV-2 testing in Caco-2 cells and primary lung fibroblasts", "format": "cell-based", "conditions": "Caco-2 cells and primary lung fibroblasts from human donors; data not shown"}, "Klebsiella pneumoniae": {"test_system": "Klebsiella pneumoniae", "test": "Broth microdilution MIC", "format": "cell-based", "conditions": "2-3 isolates/organism, read-out: MIC"}, "Staph. saprophyticus": {"test_system": "Staph. saprophyticus", "test": "Broth microdilution MIC", "format": "cell-based", "conditions": "Staphylococcus saprophyticus; Staph. saprophyticus; 2-3 isolates/organism; read-out: MIC"}, "Acinetobacter spp.": {"test_system": "Acinetobacter spp.", "test": "Broth microdilution MIC", "format": "cell-based", "conditions": "2-3 isolates/organism"}, "[7]": {"test_system": "LPS-induced TNF-α release", "test": "LPS-induced TNF-α release, THP-1 cells, ELISA", "format": "cell-based", "conditions": "Homo sapiens, 8-hour exposure, read-out: IC50, inhibition of LPS-induced TNF-α release"}, "Staph. epidermidis": {"test_system": "Staph. epidermidis", "test": "Broth microdilution MIC", "format": "cell-based", "conditions": "Staphylococcus epidermidis; Staph. epidermidis; 2-3 isolates/organism; read-out: MIC"}, "Pseud. aeruginosa": {"test_system": "Pseud. aeruginosa", "test": "Broth microdilution MIC", "format": "cell-based", "conditions": "Pseudomonas aeruginosa; Pseud. aeruginosa; 2-3 isolates/organism; read-out: MIC"}, "Staph. aureus (MRSA)": {"test_system": "Staph. aureus (MRSA)", "test": "Broth microdilution MIC", "format": "cell-based", "conditions": "Staphylococcus aureus; Staph. aureus (MRSA); 2-3 isolates/organism; read-out: MIC"}, "[8]": {"test_system": "luciferase-expressing pseudotyped virus (rVSV) containing the SARS-CoV-2 spike protein", "format": "cell-based", "remark": "listed apart in the source"}, "[9]": {"test_system": "embryonic mouse cell line (NIH/3T3)"}, "[10]": {"test_system": "human erythrocytes (RBCs)"}, "Citrobacter fruendi": {"test_system": "Citrobacter fruendi", "test": "Broth microdilution MIC", "format": "cell-based", "conditions": "Citrobacter fruendi; 2-3 isolates/organism; read-out: MIC"}, "Strept. pyogenes": {"test_system": "Strept. pyogenes", "test": "Broth microdilution MIC", "format": "cell-based", "conditions": "Streptococcus pyogenes; Strept. pyogenes; 2-3 isolates/organism; read-out: MIC"}, "Entero. faecalis": {"test_system": "Entero. faecalis", "test": "Broth microdilution MIC", "format": "cell-based", "conditions": "Enterococcus faecalis; Entero. faecalis; 2-3 isolates/organism; read-out: MIC"}, "Providencia stuartii": {"test_system": "Providencia stuartii", "test": "Broth microdilution MIC", "format": "cell-based", "conditions": "2-3 isolates/organism, read-out: MIC"}, "[11]": {"conditions": "Severe acute respiratory syndrome coronavirus 2, Calu-3"}}, "note": "Where “and” joins values, the source holds several entries; their conditions need not be identical. Identical values can stand only once."}
{"compound": "N=C(N)NCCCCC(=O)Nc1cc(C(F)(F)F)cc(NC(=O)c2cc(C(=O)Nc3cc(C(F)(F)F)cc(NC(=O)CCCCNC(=N)N)c3OC3CCNC3)ncn2)c1OC1CCNC1", "note": "(centres unmarked) [brilacidin]", "values": [{"measurement": "reduction of infectious viral titer", "setting": "SARS-CoV-2 [1]; 10 µM", "result": 95, "unit": "%"}, {"measurement": "reduction of infectious viral titer", "setting": "SARS-CoV-2 [1]; 20 µM", "result": 97, "unit": "%"}, {"measurement": "Selectivity Index (CC50/IC50)", "setting": "SARS-CoV-2 [1]; Calu-3", "result": 426}, {"measurement": "inhibition exerted at the MOIs of 0.1 and 0.05", "setting": "SARS-CoV-2 [1]; Calu-3, 10 μM", "result": "comparable to each other"}, {"measurement": "inhibition of virus at the lower MOIs", "setting": "SARS-CoV-2 [1]; Calu-3, 10 μM, MOIs 0.01 and 0.001", "result": "not showing statistical significance"}, {"measurement": "infectious virus titer, treatment of virus alone (E, entry)", "setting": "SARS-CoV-2 [1]; Calu-3, inoculum incubated with 5, 10 or 20 μM for 1 hour, no pre- or post-treatment of cells, Washington and Italy strains", "result": "marked reductions of virus titer"}, {"measurement": "IC50", "setting": "SARS-CoV-2 [1]; [11]", "result": 0.565, "unit": "µM"}, {"measurement": "IC90", "setting": "SARS-CoV-2 [1]; [11]", "result": 2.63, "unit": "µM"}, {"measurement": "inhibition at 20 µM", "setting": "SARS-CoV-2 [1]; Severe acute respiratory syndrome coronavirus 2, Calu-3, read-out: inhibition of infectious viral titer", "result": 61, "unit": "%"}, {"measurement": "Selectivity (EC50/MIC) HepG2", "setting": "[2]", "result": "1,031"}, {"measurement": "decrease in the viral genomic copies", "setting": "[3]", "result": 29, "unit": "%"}, {"measurement": "IC50", "setting": "human PDE3A", "result": "~1.8 µM and 1.8 µM"}, {"measurement": "inflammatory biomarkers IL-1β and IL-6 in colonic tissue biopsies", "setting": "[4]; Week 6 (Day 42) compared to baseline", "result": "reduced"}, {"measurement": "clinical remission (with Endoscopic response), subjects", "setting": "[4]; each cohort (50 mg, 100 mg, 200 mg daily retention enema), after 6 weeks", "result": "> 50", "unit": "%"}, {"measurement": "MIC90", "setting": "S. aureus", "result": 1, "unit": "µg/mL"}, {"measurement": "toxicity in Calu-3 cells", "setting": "Calu-3 cells; 10 and 20 μM, 24 hours", "result": "nontoxic"}, {"measurement": "CC10 (90% viability)", "setting": "Calu-3 cells; Calu-3, 24 hpt, Hill model fit", "result": 26.8, "unit": "µM"}, {"measurement": "IC50", "setting": "human PDE4B2", "result": "~3 µM and 3 µM"}, {"measurement": "inhibition of pseudovirus (rVSV) attachment and entry", "setting": "[5]", "result": "inhibited the pseudovirus at both concentrations tested in a comparable manner"}, {"measurement": "IC50", "setting": "LPS-induced IL-8 release", "result": 10.8, "unit": "µM"}, {"measurement": "inhibitory properties in ACE2 positive cell lines", "setting": "SARS-CoV-2 [6]", "result": "supported brilacidin's inhibitory properties"}, {"measurement": "MIC", "setting": "Klebsiella pneumoniae", "result": "1 to 2", "unit": "µg/mL"}, {"measurement": "MIC", "setting": "Staph. saprophyticus", "result": "0.25 to 0.5", "unit": "µg/mL"}, {"measurement": "MIC", "setting": "Acinetobacter spp.", "result": 4, "unit": "µg/mL"}, {"measurement": "IC50", "setting": "[7]", "result": 23.4, "unit": "µM"}, {"measurement": "MIC", "setting": "Staph. epidermidis", "result": "0.25 to 0.5", "unit": "µg/mL"}, {"measurement": "MIC", "setting": "Pseud. aeruginosa", "result": 32, "unit": "µg/mL"}, {"measurement": "MIC", "setting": "Staph. aureus (MRSA)", "result": "0.5 to 1", "unit": "µg/mL"}, {"measurement": "intracellular spike protein signal", "setting": "[8]", "result": "decreased intracellular spike protein signal"}, {"measurement": "Selectivity (EC50/MIC) 3T3", "setting": "[9]", "result": 430}, {"measurement": "Selectivity (EC50/MIC) RBCs", "setting": "[10]", "result": 558}, {"measurement": "MIC", "setting": "Citrobacter fruendi", "result": "2 to 4", "unit": "µg/mL"}, {"measurement": "MIC", "setting": "Strept. pyogenes", "result": "1 to 4", "unit": "µg/mL"}, {"measurement": "MIC", "setting": "Entero. faecalis", "result": 1, "unit": "µg/mL"}, {"measurement": "MIC", "setting": "Providencia stuartii", "result": "16 to 64", "unit": "µg/mL"}]}
